Measurements reported in patent publication US20120301468A1, “ANTI-MN ANTIBODIES AND METHODS OF USING SAME” (BAYER HEALTHCARE LLC, priority 2005, published 2012).
pEC50: −log10 of the molar value.

Experiments:
MN-negative DLD cells = assay: FACS cell binding, DLD cells; assay type: cell-based
Method: Cells may be assayed for MN expression as a diagnostic tool. Adherent MN-expressing PC-3 mm2 cells and non-MN expressing DLD1 cells were detached from their flasks with 1:10 trypsin/Versene in PBS solution for 5 to 10 minutes. Cells were spun down (1000 rpm, 5 minutes), washed once with ice cold RPMI 10% FBS, and resuspended in ice-cold staining buffer (Ca^+ Mg^+-free PBS, 2% BSA, and 0.05% sodium azide) at 6×10^6 cells/ml. Primary antibody, human anti-MN IgG1, or control human IgG1 antibody at 25 μg/mL were incubated with 6×10^5 cells on ice for 1 hour. The unbound antibody was washed from the cells with the ice-cold staining buffer. The cells were fixed with 2% formaldehyde in PBS for 10 minutes, then washed twice with staining buffer. The cell pellet was resuspended in 100 μl ice cold staining buffer containing anti-human Alexa fluor 488 secondary antibody (final conc. 1:200, Molecular Probes/Invitrogen, Carlsbad, Calif.), and incubated on ice for 1 hour. The unbound antibody was washed from the cells two times with flow buffer (PBS containing 2% BSA), and the cells were resuspended in 1 mL flow buffer. FACS analysis of the resuspended cells was performed on a […] FACS Caliber instrument.
The MN antibody G250, a humanized IgG1 antibody, (Wilex) was used as a reference throughout the in vitro studies.

[1] = test system: high MN-expressing huMN-MIAPaCa2 xenograft; assay: huMN-MIAPaCa2 xenograft model; assay type: in vivo, mice; conditions: for TGI: end of dosing
Method: (§1) To better understand the relationship between MN expression and antitumor efficacy, xenograft efficacy studies were conducted using a low MN-expressing pancreatic model, MIAPaCa2 and high MN-expressing huMN-MIAPaCa2 model. This latter line was derived by engineering the MIAPaCa2 line to stably express MN. […] 3ee9/MMAE dosed at 10 mg/kg only produced 50% TGI.

[2] = test system: MN-negative MIAPaca2 cells; assay: In vitro cytotoxicity, MIAPaca2
[3] = test system: 13 other carbonic anhydrases; assay: Binding to other carbonic anhydrases
[4] = test system: low MN-expressing MIAPaCa2 pancreatic xenograft; assay: MIAPaCa2 xenograft model; assay type: in vivo, mice
Method: as §1

In vivo distribution = assay: In vivo distribution; design: species or system mice; conditions: Table 4 profile
From the text: The Maestro™ in-vivo imaging system (CRI, Woburn, Mass.) with multi-spectral acquisition and analysis is designed to eliminate auto-fluorescence background. Mabs 3ee9 of BAY 79-4620, M75 (mouse monoclonal recognizing MN) and control human IgG, were conjugated with Alexa Fluor 750 (Invitrogen Cat# A20011) according to manufacturer's instructions. The ratio of Protein/AF750 (mol/mol) was 1/5.9 for 3ee9, 8.9 for human IgG, and 6.0 for M75.
Twelve days before the injection of each fluorescence-labeled antibody, Harlan Balb/C nudes were implanted with MIAPaCa-2 (low MN-expressing; 7.5×10^6 cells in 50% Matrigel) subcutaneously in the right flank, and huMN-MIAPaCa2 (MN transfected stable cell line; 5×10^6 cells in 50% Matrigel) subcutaneously in the left flank. 4 μg of conjugated antibody was injected on Day 0 (12 days post implant) to each animal. Imaging was done on Day 4, Day 5 and Day 10. Data were collected using animals that were anaesthetized (100 mg/kg ketamine/10 mg/kg xylazine, i.p.), and placed inside the imaging system. Multi-spectral image cubes (series of images) were acquired with images spaced every 10 nm throughout the spectral range of 680 to 950 nm, which covered the Near Infrared (NIR) range.
Each image was exposed for 5 seconds. False-colored images were synthesized from the spectral cube using Maestro software and scaled to visible brightness using ImagePro Plus 6.0. […]

MN-expressing MaTu cells = assay: FACS cell binding, MaTu cells; assay type: cell-based, human
[5] = test system: MN-expressing cells (PC3 mm2); assay: Antibody internalization (Cellomics), PC3 mm2; assay type: cell-based, human
[6] = test system: MN-expressing cells (PC3 mm2); assay: Spindle formation / tubulin staining, Pc3 mm2; assay type: cell-based, human; conditions: tubulin stained with fluorescence labeled antibody
From the text: (§2) The cytotoxic drug MMAE delivered by 3ee9/MMAE is a tubulin inhibitor that prevents spindle formation during cell mitosis resulting in G2/M arrest. The tubulin is stained with florescence labeled antibody. […] These studies confirmed that the antibody drug conjugate 3ee9/MMAE kills cell through targeted tubulin disruption.

MN-negative cells (DLD1) = assay: Antibody internalization (Cellomics), DLD1; assay type: cell-based
[7] = test system: MN non-expressing cells (H460); assay: Spindle formation / tubulin staining, H460; assay type: cell-based; conditions: tubulin stained with fluorescence labeled antibody
From the text: as §2

tubulin in HT-29 tumors = assay: In vivo mechanism of action, immunohistochemistry of HT-29 tumors; design: species or system athymic mice
Method: To explore the in vivo mechanism of action of 3ee9/MMAE, tumors were implanted subcutaneously at right flank of the mice with 5×10^6 HT-29 cells. Eight days later, athymic mice bearing HT-29 tumors were treated with vehicle or with 3ee9/MMAE at 1.25 and 5 mg/kg (Q1Dx1). Tumors were collected and fixed in formalin 4 hours and 1, 3 and 5 hours following administration of 3ee9/MMAE. Samples were then embedded in paraffin, sectioned at 5 μm, de-paraffinized, and stained using standard protocol for fluorescent immunohistochemistry of human tissues using mouse antibodies: Anti-α/β-tubulin, Anti-phospho-Histone H3, and DNA. The slides were then observed under a fluorescent microscope, and representative images were taken through three separate color channels.
3ee9/MMAE had little effect in affecting cell mechanism in the 4 hr samples. […] In addition, decreased level of tubulin staining could be observed. These effects were then highly amplified in the day 3 and day 5 samples.

[8] = test system: mitochondria-associated CA5; assay: Binding to CA5

3ee9/MMAE: human anti-MN IgG1 antibody 3ee9 conjugated to Monomethylauristatin E (MMAE)
cell binding by FACS (MN-negative DLD cells): not MN-negative DLD cells
TGI ([1]; 2.5 mg/kg): 63%
TGI ([1]; 5 mg/kg): 82%
responses ([1]; 10 mg/kg): 100%
TGI ([1]; 10 mg/kg): 94%
cytotoxicity ([2]; MIAPaca2 (MN−)): not to MN-negative MIAPaca2 cells
killing of MN-negative cells ([2]; doses as high as 1 uM): Less than 10%
pEC50 ([2]; read-out: Cytotoxicity: MN− (ec50), MN− cells): < 6.00
binding to other carbonic anhydrases [3]: no detectable binding
effect in inhibiting growth [4]: minimal effect
In vivo distribution (In vivo distribution): normal
cell binding by FACS (MN-expressing MaTu cells): bind to MN-expressing MaTu cells
internalization [5]: selectively internalized
effect on spindle formation [6]: fragmented fibers resulting from tubulin binding with MMAE and prevention of normal spindle formation
internalization (MN-negative cells (DLD1)): not by MN-negative cells (DLD1)
effect on spindle formation [7]: No activity
cells affected by treatment in tumors (tubulin in HT-29 tumors; 5 mg/kg Q1Dx1, day 5): almost all cells
effect on cell mechanism in tumors (tubulin in HT-29 tumors; 1.25 and 5 mg/kg Q1Dx1, 4 hr samples): little effect
G2/M arrest, spindle and tubulin staining in tumors (tubulin in HT-29 tumors; 1.25 and 5 mg/kg Q1Dx1, day 1): increased numbers of cells were in G2/M arrest
binding to CA5 [8]: Binding to mitochondria-associated CA5 was observed
